# The source made the active and inactive calls. The calls are words filed in the database; no cut-off is given here.
# Columns and labels:
# [1] = Drug level in C57BL/6J DIO mouse plasma at 3 mg/kg, po after 22 days; assay type: ADME, organism-based; parameters: dose 3 mg/kg, route oral
# [2] = Cmax in C57BL/6J DIO mouse brain at 10 mg/kg, po; assay type: ADME, organism-based; parameters: dose 10 mg/kg, route oral
# Mus musculus [3] = test: Decrease in body weight of C57BL/6J DIO mouse at 3 mg/kg, po after 22 days relative to control; assay type: functional; parameters: scale not given: the % may be the effect or the level left
# [4] = Ratio of AUC in brain to plasma of C57BL/6J DIO mouse at 10 mg/kg, po; assay type: ADME, organism-based; parameters: dose 10 mg/kg, route oral; conditions: brain and plasma, read-out: Ratio AUC
# Canis familiaris [5] = species: Canis familiaris; test: Decrease in heart rate in anasthetized Beagle dog at 36.13 ug/ml relative to control; assay type: functional, Canis lupus familiaris; parameters: scale not given: the % may be the effect or the level left
# Mus musculus [6] = test: Decrease in body weight of C57BL/6J DIO mouse at 10 mg/kg, po after 22 days relative to control; assay type: functional; parameters: scale not given: the % may be the effect or the level left
# [7] = Drug level in anasthetized Beagle dog plasma at 3 mg/kg, iv after 30 mins; assay type: ADME, organism-based, Canis lupus familiaris; parameters: dose 3 mg/kg, route intravenous
# Rattus norvegicus [8] = test: Drug level in anesthetized Sprague-Dawley rat brain; assay type: ADME, organism-based; conditions: in vivo
# [9] = Drug level in C57BL/6J DIO mouse plasma at 10 mg/kg, po after 22 days; assay type: ADME, organism-based; parameters: dose 10 mg/kg, route oral
# Canis familiaris [10] = species: Canis familiaris; test: Decrease in heart rate in anasthetized Beagle dog at 10.94 ug/ml relative to control; assay type: functional, Canis lupus familiaris; parameters: scale not given: the % may be the effect or the level left
# [11] = Drug level in C57BL/6J DIO mouse brain at 3 mg/kg, po after 22 days; assay type: ADME, organism-based; parameters: dose 3 mg/kg, route oral; conditions: read-out: Drug uptake
# Rattus norvegicus [12] = test: Drug level in anesthetized Sprague-Dawley rat plasma; assay type: ADME, organism-based; conditions: in vivo
# Mus musculus [13] = test: AUC in C57BL/6J DIO mouse brain at 10 mg/kg, po; assay type: ADME, organism-based; parameters: dose 10 mg/kg, route oral; conditions: in vivo
# [14] = Drug level in C57BL/6J DIO mouse brain at 10 mg/kg, po after 22 days; assay type: ADME, organism-based; parameters: dose 10 mg/kg, route oral; conditions: read-out: Drug uptake
# [15] = Half life in C57BL/6J DIO mouse brain at 10 mg/kg, po; assay type: ADME, organism-based; parameters: dose 10 mg/kg, route oral
# [16] = Drug level in anasthetized Beagle dog plasma at 10 mg/kg, iv after 30 mins; assay type: ADME, organism-based, Canis lupus familiaris; parameters: dose 10 mg/kg, route intravenous
# [17] = Cmax in C57BL/6J DIO mouse plasma at 10 mg/kg, po; assay type: ADME, organism-based; parameters: dose 10 mg/kg, route oral
# [18] = Half life in C57BL/6J DIO mouse plasma at 10 mg/kg, po; assay type: ADME, organism-based; parameters: dose 10 mg/kg, route oral
# [19] = AUC in C57BL/6J DIO mouse plasma at 10 mg/kg, po; assay type: ADME, organism-based; parameters: dose 10 mg/kg, route oral
# [20] = Drug level in anasthetized Beagle dog plasma at 30 mg/kg, iv after 30 mins; assay type: ADME, organism-based, Canis lupus familiaris; parameters: dose 30 mg/kg, route intravenous
# [21] = target: T1, Melanin-concentrating hormone receptor 1 (Homo sapiens, UniProt Q99705); test: Displacement of [125I]MCH from MCHr1 expressed in IMR32 cells; assay type: cell-based, IMR-32
# T1 sequence (Q99705 whole entry): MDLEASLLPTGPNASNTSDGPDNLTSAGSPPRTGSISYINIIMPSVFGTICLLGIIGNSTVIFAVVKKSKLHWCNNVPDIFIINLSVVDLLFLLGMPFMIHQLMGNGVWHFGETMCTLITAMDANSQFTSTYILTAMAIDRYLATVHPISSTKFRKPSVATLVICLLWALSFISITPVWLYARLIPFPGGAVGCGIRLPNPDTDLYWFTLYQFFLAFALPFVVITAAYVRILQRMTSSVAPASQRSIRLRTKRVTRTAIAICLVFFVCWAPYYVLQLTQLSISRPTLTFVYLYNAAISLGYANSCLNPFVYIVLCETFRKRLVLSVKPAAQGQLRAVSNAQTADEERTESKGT
# [22] = target: T1, Melanin-concentrating hormone receptor 1; test: Antagonist activity at MCHr1 assessed as inhibition of MCH-mediated calcium ion release in intact IMR32 cells by FLIPR assay; assay type: functional, cell-based, IMR-32
# Rattus norvegicus [23] = test: Decrease in heart rate in anesthetized Sprague-Dawley rat at 100 mg/kg; assay type: functional; parameters: scale not given: the % may be the effect or the level left
# Mus musculus [24] = test: Decrease in body weight of C57BL/6J DIO mouse at 1 mg/kg, po relative to control; assay type: functional, organism-based; parameters: dose 1 mg/kg
# [25] = Drug level in C57BL/6J DIO mouse brain at 30 mg/kg, po after 14 days; assay type: ADME, organism-based; parameters: dose 30 mg/kg, route oral; conditions: read-out: Drug uptake
# [26] = Drug level in C57BL/6J DIO mouse plasma at 10 mg/kg, po after 14 days; assay type: ADME, organism-based; parameters: dose 10 mg/kg, route oral
# Mus musculus [27] = test: Decrease in body weight of C57BL/6J DIO mouse at 3 mg/kg, po relative to control; assay type: functional, organism-based; parameters: dose 3 mg/kg
# Mus musculus [28] = test: Decrease in food intake of C57BL/6J DIO mouse at 30 mg/kg, po relative to control; assay type: functional; parameters: scale not given: the % may be the effect or the level left
# [29] = Drug level in C57BL/6J DIO mouse brain at 10 mg/kg, po after 14 days; assay type: ADME, organism-based; parameters: dose 10 mg/kg, route oral; conditions: read-out: Drug uptake
# Mus musculus [30] = test: Decrease in body weight of C57BL/6J DIO mouse at 10 mg/kg, po after 14 days relative to control; assay type: functional; parameters: scale not given: the % may be the effect or the level left
# Mus musculus [31] = test: Decrease in body weight of C57BL/6J DIO mouse at 30 mg/kg, po after 14 days relative to control; assay type: functional; parameters: scale not given: the % may be the effect or the level left
# Mus musculus [32] = test: Decrease in food intake of C57BL/6J DIO mouse at 10 mg/kg, po relative to control; assay type: functional; parameters: scale not given: the % may be the effect or the level left
# [33] = Drug level in C57BL/6J DIO mouse plasma at 30 mg/kg, po after 14 days; assay type: ADME, organism-based; parameters: dose 30 mg/kg, route oral
smiles,measurement,setting,value
O=C(NC1CCN(Cc2ccc3c(c2)OCO3)CC1)c1cc(=O)c2ccc(F)cc2o1,concentration at 528 h,[1],840 ng/mL
same,Cmax,[2],4370 ng/g
same,Activity,Mus musculus [3],0%
same,Kp,[4],1.4
same,Activity,Canis familiaris [5],11%
same,Activity,Mus musculus [6],7%
same,concentration at 0.5 h,[7],5.9 µM
same,Drug uptake,Rattus norvegicus [8],126 µg/g
same,concentration at 528 h,[9],3270 ng/mL
same,Activity,Canis familiaris [10],22%
same,concentration at 528 h,[11],1110 ng/g
same,Cp,Rattus norvegicus [12],62000 ng/mL
same,AUC,Mus musculus [13],12658 ng·h/g
same,concentration at 528 h,[14],4670 ng/g
same,half-life,[15],2.4 h
same,concentration at 0.5 h,[16],25.8 µM
same,Cmax,[17]; read-out: Cp,1780 ng/mL
same,half-life,[18],2.5 h
same,AUC,[19],9290 ng·h/mL
same,concentration at 0.5 h,[20],85.1 µM
O=C(NC1CCN(Cc2ccccc2F)CC1)c1cc(=O)c2ccc(F)cc2o1,IC50,[21],566 nM
same,IC50,[22],2150 nM
O=C(NC1CCN(Cc2ccc3c(c2)OCO3)CC1)c1cc(=O)c2ccc(OC(F)F)cc2o1,IC50,[21],64 nM
same,IC50,[22],160 nM
O=C(NC1CCN(Cc2ccc3c(c2)OC(F)(F)O3)CC1)c1cc(=O)c2ccc(F)cc2o1,IC50,[21],57 nM
same,IC50,[22],601 nM
O=C(NC1CCN(Cc2ccc3c(c2)OCO3)CC1)c1cc(=O)c2cc(Cl)c(Cl)cc2o1,Drug uptake,Rattus norvegicus [8],63 µg/g
same,Cp,Rattus norvegicus [12],20000 ng/mL
same,AUC,Mus musculus [13],0 ng·h/g
same,Activity,Rattus norvegicus [23],10%
same,Cmax,[17]; read-out: Cmax,33 ng/mL
same,half-life,[18],0.9 h
same,AUC,[19],39 ng·h/mL
same,IC50,[22],83 nM
O=C(NC1CCN(Cc2ccc3c(c2)OCO3)CC1)c1cc(=O)c2cc(Cl)ccc2o1,IC50,[21],734 nM
same,IC50,[22],2050 nM
COc1ccc2c(=O)cc(C(=O)N3CCN(Cc4ccc5c(c4)OCO5)CC3)oc2c1,IC50,[21],> 2000 nM
COc1ccc2c(=O)cc(C(=O)NCCC3CCCN3Cc3ccc4c(c3)OCO4)oc2c1 (configuration not stated),IC50,[21],> 2000 nM
COc1ccc(CN2CCC(NC(=O)c3cc(=O)c4ccc(F)cc4o3)CC2)c(F)c1,IC50,[21],53 nM
same,IC50,[22],411 nM
O=C(NC1CCN(Cc2cccc3c2OCO3)CC1)c1cc(=O)c2ccc(F)cc2o1,IC50,[21],> 700 nM
COc1ccc2c(=O)cc(C(=O)NC3CCN(Cc4ccc5c(c4)OCO5)C3)oc2c1 (configuration not stated),IC50,[21],> 2000 nM
CC(=O)Nc1ccc(CN2CCC(NC(=O)c3cc(=O)c4ccc(F)cc4o3)CC2)cc1,IC50,[21],1690 nM
same,IC50,[22],> 10000 nM
O=C(NC1CCN(Cc2ccc3c(c2)OCO3)CC1)c1cc(=O)c2ccc(C(F)(F)F)cc2o1,IC50,[21],178 nM
same,IC50,[22],3070 nM
O=C(NC1CCN(Cc2ccc3c(c2)OCO3)CC1)c1cc(=O)c2cc(F)ccc2o1,IC50,[21],65 nM
same,IC50,[22],196 nM
COc1ccc(CN2CCC(NC(=O)c3cc(=O)c4ccc(F)cc4o3)CC2)cc1,IC50,[21],13 nM
same,IC50,[22],101 nM
CC(=O)c1ccc(CN2CCC(NC(=O)c3cc(=O)c4ccc(F)cc4o3)CC2)cc1,IC50,[21],39 nM
same,IC50,[22],581 nM
COc1ccc2c(=O)cc(C(=O)NC3CCN(Cc4ccc5c(c4)OCO5)CC3)oc2c1,Cmax,[2],548 ng/g
same,Activity,Mus musculus [24],inactive
same,concentration at 336 h,[25],27100 ng/g
same,Kp,[4],0.24
same,concentration at 336 h,[26],10100 ng/mL
same,Activity,Mus musculus [27],inactive
same,Activity,Mus musculus [28],37%
same,Drug uptake,Rattus norvegicus [8],158 µg/g
same,concentration at 336 h,[29],4900 ng/g
same,Cp,Rattus norvegicus [12],29000 ng/mL
same,AUC,Mus musculus [13],4398 ng·h/g
same,IC50,[21],11 nM
same,Activity,Mus musculus [30],7.3%
same,Activity,Mus musculus [31],15.9%
same,Activity,Mus musculus [32],16%
same,half-life,[15],4.9 h
same,concentration at 336 h,[33],32900 ng/mL
same,Cmax,[17]; read-out: Cmax,3600 ng/mL
same,half-life,[18],3.1 h
same,IC50,[22],73 nM
O=C(NC1CCN(Cc2ccc3c(c2)OCO3)CC1)c1cc(=O)c2ccc(Cl)cc2o1,IC50,[21],5 nM
same,IC50,[22],79 nM
O=C(NC1CCN(Cc2ccc3c(c2)OCO3)CC1)c1cc(=O)c2ccc(O)cc2o1,IC50,[21],1480 nM
same,IC50,[22],> 10000 nM
O=C(NC1CCN(Cc2cc3c(cc2Cl)OCO3)CC1)c1cc(=O)c2ccc(F)cc2o1,IC50,[21],22 nM
same,IC50,[22],266 nM
O=C(NC1CCN(Cc2cccc(F)c2)CC1)c1cc(=O)c2ccc(F)cc2o1,IC50,[21],12 nM
same,IC50,[22],966 nM
COc1cccc(CN2CCC(NC(=O)c3cc(=O)c4ccc(F)cc4o3)CC2)c1,IC50,[21],31 nM
same,IC50,[22],390 nM

# Source: ChEMBL document CHEMBL1137327, “Optimization of chromone-2-carboxamide melanin concentrating hormone receptor 1 antagonists: assessment of potency, efficacy, and cardiovascular safety” (J Med Chem, 2006)
